Measurements reported in patent US20150247149A1, “Detecting and Treating Liver Damage” (The Regents of the University of California, priority 2012, published 2015).
Values belong to the compound of their own block, whether it stands above or below them.

Columns and labels:
HUVECs [1] = test: HUVEC tube formation assay; type: cell-based, human
Experimental: HUVECs (0.5-1×10^5 cells per well) were seeded onto a coated 24-well plate culture dishes with 200 μl/cm2 (thick gel method) of Matrigel (BD, Franklin Lakes, N.J., USA) and cultured in EBM-2 basal medium supplemented with 1.1% of streptomycin and penicillin in the presence of 100 ng/mL of VEGF (Peprotech, Rocky Hill, N.J., USA), hepatocytes-derived MPs, MP-free supernatant or conditioned supernatant collected after 24 hours of treatment with FFAs. In selective studies, a specific inhibitor for RhoA-ROCK (Y27632, 10 μM) was used in association with MPs in the treatment of endothelial cells. For the ex vivo studies, PFP isolated from different groups of mice (chow, HF/HCarb, MCD fed mice and mice injected with control RNA, VNN1 siRNA or PBS as vehicle) were ultracentrifuged at 100,000 g for 1 h at 10° C. to pellet the blood MPs. HUVECs were treated with MPs (or blood pure MPs) and incubated for 5 h at 37° C. Tube formation was investigated by using an inverted microscope at 4× magnification and images were captured. Tube formation image analysis was assessed by using Wimtube software (Wimasis, Munich, Germany) and the values referred to total tube length (pixel) were used for statistical and data analysis.

HUVECs [2] = test: HUVEC migration (Boyden's chamber chemotaxis, wound healing); type: cell-based, human
Experimental: In vitro migration studies have been performed by using human umbilical cell endothelial cells (HUVECs). Wound healing assay was performed to analyze chemokinesis (non-oriented migration) by using collagen-coated 6-well culture plate, where a silicon elastomer (PDMS) strip was placed vertically to the bottom of every well to create the artificial wound. HUVECs were plated and grown until reaching the complete confluence. HUVECs were treated with EBM-2 supplemented with 100 ng/mL of VEGF (Peprotech, Rocky Hill, N.J., USA), hepatocytes-derived MPs, MP-free supernatant or supernatant collected after 24 hours of treatment with FFAs. The strips were removed carefully and migration of cells was detected by a confocal microscope, capturing one picture per field every 10 minutes for 48 hours. Mitomycin (1 μg/ml) was used to inhibit cell proliferation during wound healing assay. Data were analyzed by using Wimscratch software (Wimasis, Munich, Germany) in order to get the total cell-covered area (pixel). Boyden's chamber assay was performed to analyze chemotaxis (oriented migration) by using cell culture inserts 8 μm pore size (Millipore, Billerica, Mass., USA) and 24-well plate. Each well was filled with 500 μl of serum free EBM-2 media in presence or absence of the following chemoattractants: 100 ng/mL VEGF; hepatocytes-derived MPs; MP-free supernatant or conditioned supernatant. The inserts were placed on top of each well and 150 μl of cell suspension (5×10^4 cells) was added. Plates were incubated overnight at 37° C., and then the filters were removed and stained with Vectashield mounting medium with 4′,6-diamino-2-phenylindole (DAPI) (Vector Labs, Burlingame, Calif., USA).
Migrated cells were detected with a fluorescence microscope and number per field of their nuclei was counted. For the ex vivo studies, PFP isolated from different groups of mice (chow, HF/HCarb, MCD fed mice and mice injected with control siRNA, VNN1 siRNA or PBS as vehicle) were ultracentrifuged at 100,000 g for 1 h at 10° C. to pellet the blood MPs.

[3] = tested on: HepG2 and primary rat hepatocytes; test: Release of Annexin V-positive MPs from hepatocytes (flow cytometry); type: cell-based, human (HepG2); rat (primary hepatocytes); conditions: palmitic acid-treated hepatocytes co-incubated with caspase 3 inhibitor (FIGS. 2E, 2G)
Experimental: For microparticles (MPs) isolation, HepG2 and primary rat hepatocytes were seeded onto a 100 mm dish and cultured until reaching 80-85% of confluence. Cells were incubated with 0.25 mM of palmitic, stearic, oleic or linoleic acid (FFA) in serum-free DMEM, supplemented with 1.1% penicillin and streptomycin, 1% endotoxin-free bovine serum albumin (BSA), for up to 24 h. […] The uptake of FFAs from hepatocytes was evaluated by Oil red-O staining kit (Cayman, Ann Arbor, Mich., USA) according to the manufacturer instruction. To determine the effect of caspase 3 activity, hepatocytes were treated with a selective caspase 3 inhibitor, Ac-DEVD-CHO (BD Pharmingen, Franklin Lakes, N.J., US). Control cells were incubated with the same serum-free media in association to the vehicle that was used to dissolve the FFAs. After 24 h, the supernatant were collected and centrifuged twice at 3,000 rpm for 15 minutes to remove cell debris and aggregates. The supernatant was then transferred to new tubes and ultracentrifuged at 100,000 g for 90 minutes at 10° C., to avoid contamination of exosomes.
The supernatant was collected in new tubes and used as a MP-free control and the pelleted MPs were resuspended in 200 μl of PBS for flow cytometry or in 500 μl of EGM-2 growth medium for subsequent in vitro studies. The concentration of microparticles μg/mL was determined by the BCA protein assay and different concentrations of MPs (50, 125, 250 and 500 μg/mL) were used to perform the dose-dependent angiogenesis in vitro assays. For selected purposes, in particular for the characterization analyses, crude MPs were purified by 10-70% sucrose gradient ultracentrifugation at 150,000 g for 18 h at 10° C., collected as fractions in new tubes. […]
Flow cytometry analyses for microparticles (or endothelial cells) detection were performed by using BD LSRII Flow Cytometer System (BD Biosciences, San Jose, Calif., USA) and the data were analyzed using FlowJo software (TreeStar Inc., Ashland, Oreg., USA). […]

HUVECs [4] = test: Internalization of microparticles into endothelial cells; type: cell-based, human; conditions: HUVECs pre-treated with 10 mM MβCD 15 min or 2.5 μg/mL cav-1 nAb 30 min at 37° C., then MPs 6 h
Experimental: Internalization of hepatocyte-derived MPs into HUVECs and the role of VNN1 and lipid raft were evaluated by flow cytometry, indirect immunofluorescence and electron microscopy. To investigate the MPs internalization into HUVECs, by flow cytometry, MPs were stained with 1 μM of Calcein, AM (MPCalcein) (BD Biosciences), a fluorescent dye with an emission wavelength of 515 nm, for 1 h in the dark at 37° C. MPs were centrifuged twice with PBS for 30 minutes at 35,000 rpm and resuspended in 500 μL of EGM medium. To block MPs internalization, MPsCalcein were incubated with or without 4 μg/mL of rabbit polyclonal anti-VNN1 antibody (S3055; Epitomics, Burlingame, Calif., USA) for 30 minutes at RT. A rabbit anti-GAPDH antibody (Abcam, Cambridge, Mass., USA) was used as a control. […] Cells were trypsinized and FITC positive HUVECs were detected by BD LSRII Flow Cytometer System (BD) and counted. […]
The MPs suspension was incubated in the dark for 4 minutes, and then 2 mL of 1% BSA was added and kept for 1 minute to stop the reaction. […] HUVECs (4×10^3 cell per well) were seeded onto a 24-well plate and depletion of cholesterol was assessed by a treatment with 10 mM of Methyl-β-cyclodextrin (MβCD) in serum-free EBM-2 medium for 15 minutes at 37° C., followed by wash with fresh medium. […]

[5] = HUVECs treated with MPs and Y27632, 10 μM

Compound: C[C@@H](N)[C@H]1CC[C@H](C(=O)Nc2ccncc2)CC1 [Y-27632]
tube formation (MP-mediated) (HUVECs [1]; [5]): significant decrease | chemotaxis (MP-mediated) (HUVECs [2]; [5]): significant decrease

tube formation induced by cell-free supernatants of FFA-treated hepatocytes (HUVECs [1]; supernatants from HepG2/primary rat hepatocytes incubated with FFA up to 24 h, VEGF-A positive control): marked increase | endothelial cell oriented (chemotaxis) and non-oriented migration induced by cell-free supernatants of FFA-treated hepatocytes (HUVECs [2]; supernatants from hepatocytes incubated with FFA up to 24 h, VEGF-A positive control): marked increase
Compound: CCCCCCCCCCCCCCCCCC(=O)O [stearic acid]

Compound: Ac-DEVD-CHO [selective caspase 3 inhibitor]
formation and release of MPs [3]: drastically reduced

Compound: Methyl-β-cyclodextrin
MPs internalization into the endothelial cells (HUVECs [4]): marked reduction
